Columns and labels:
[1] = system: Aedes aegypti (mosquito larvae); test: Pest toxicity test; format: in vivo; conditions: for Mortality grading (kill): 0.01% by weight, water, 1 day; for abnormal growth effects in larva of mosquitos: in vivo
[2] = system: Phaedon cochleariae (mustard beetles); test: Pest toxicity test; format: in vivo
[3] = system: Tetranychus telarius (red spider mites, adults); test: Pest toxicity test; format: in vivo; conditions: 0.1% by weight; French bean; 3 days
[4] = system: Plutella maculipennis (diamond back moth larvae); test: Pest toxicity test; format: in vivo
[5] = system: Musca domestica (houseflies); test: Pest toxicity test, contact test; format: in vivo; conditions: 0.1% by weight; milk/sugar; 2 days; flies sprayed directly
Aphis fabae = test: Pest toxicity test; format: in vivo; conditions: 0.1% by weight; broad bean; 2 days
[6] = system: Meloidogyne incognita (nematodes); test: Pest toxicity test; format: in vivo; conditions: 0.01% by weight; water; 1 day
[7] = system: Pieris brassicae (cabbage white caterpillars); test: Pest toxicity test; format: in vivo; conditions: 0.1% by weight, 2 days
Megoura viceae = test: Pest toxicity test; format: in vivo; conditions: 0.1% by weight; broad bean; 2 days
[8] = system: Tetranychus telarius (red spider mites, eggs); test: Pest toxicity test; format: in vivo; conditions: 0.1% by weight; French bean; 3 days
[9] = system: Aedes aegypti (mosquito adults); test: Pest toxicity test; format: in vivo; conditions: 0.01% by weight; plywood; 1 day
[10] = system: Agriolimax reticulatus (slugs); test: Molluscicidal activity test; format: in vivo, Agriolimax reticulatus (Mull); conditions: pellet with 4% by weight; 6 days; 10°C
Method in brief: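 Compound was applied to a calf feeding pellet at 4% by weight active ingredient after 24 h air drying. Two replicates, each of 2 slugs starved 24 h, were kept with a moist filter paper at 10°C, and kill was assessed after 6 days.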

[11] = system: Piricularia oryzae (rice); format: in vivo; conditions: 100 ppm spray and drench; 7 days
[12] = system: Puccinia recondita (wheat); test: Fungicidal test against foliar disease A (foliage spray plus soil drench); format: in vivo; conditions: 100 ppm spray and drench; 10 days
Uncinula necator (vine) = test: Fungicidal test against foliar disease D (foliage spray plus soil drench); format: in vivo; conditions: 100 ppm spray and drench; 10 days
[13] = system: Plasmopara viticola (vine); test: Fungicidal test against foliar disease C (foliage spray plus soil drench); format: in vivo; conditions: 100 ppm spray and drench; 10 days
[14] = system: Phytophthora infestans (tomato); format: in vivo; conditions: 100 ppm spray and drench; 3 days
[15] = 0.1% by weight, mustard/paper, 2 days

| Compound | Mortality grading (kill) [1] | abnormal growth effects in larva of mosquitos [1] | Mortality grading (kill) [3] | Mortality grading (kill), contact test [5] | Mortality grading (kill) (Aphis fabae) | Mortality grading (kill) [6] | Mortality grading (kill) [7] | Mortality grading (kill) (Megoura viceae) | Mortality grading (kill) [8] | Mortality grading (kill) [9] | % Kill of slugs [10] | Amount of disease grading, disease E [11] | Mortality grading (kill) ([2]; in vivo) | Mortality grading (kill) ([4]; in vivo) | Amount of disease grading, disease A [12] | Amount of disease grading, disease D (Uncinula necator (vine)) | Amount of disease grading, disease C [13] | further results |
| --- | --- | --- | --- | --- | --- | --- | --- | --- | --- | --- | --- | --- | --- | --- | --- | --- | --- | --- |
| Fc1ccc(Nc2c(Cl)c(F)nc(F)c2Cl)cc1 [Compound 4, 3,5-Dichloro-2,6-difluoro-4(p-fluoroanilino)pyridine] | 0 (O represents less than 30% kill) | abnormal growth effects | 0 (O represents less than 30% kill) | 0 (O represents less than 30% kill) | 0 (O represents less than 30% kill) | 2 (2 represents 60 - 90% kill) | 0 (O represents less than 30% kill) | 0 (O represents less than 30% kill) | 0 (O represents less than 30% kill) | 0 (O represents less than 30% kill) | 100% | – | – | – | – | – | – | Mortality grading (kill) [2, 15]: 0 (O represents less than 30% kill); Mortality grading (kill) [4, 15]: 0 (O represents less than 30% kill) |
| Fc1nc(F)c(Cl)c(Nc2cc(C(F)(F)F)ccc2Br)c1Cl [Compound 13, 3,5-Dichloro-2,6-difluoro-4(2-bromo-5-trifluoromethylanilino)pyridine] | 0 (O represents less than 30% kill) | abnormal growth effects | 0 (O represents less than 30% kill) | 0 (O represents less than 30% kill) | 0 (O represents less than 30% kill) | 0 (O represents less than 30% kill) | 0 (O represents less than 30% kill) | 0 (O represents less than 30% kill) | 0 (O represents less than 30% kill) | 0 (O represents less than 30% kill) | – | 2 (6 to 25) | 0 (key: O represents less than 30% kill; 1 represents 30 - 49% kill; 2 represents 60 - 90% kill; 3 represents over 90% kill; C indicates a chemosterilant effect.; A indicates an antifeeding effect.) | 0 (key: O represents less than 30% kill; 1 represents 30 - 49% kill; 2 represents 60 - 90% kill; 3 represents over 90% kill; C indicates a chemosterilant effect.; A indicates an antifeeding effect.) | 0 (61 to 100) | 0 (61 to 100) | 3 (0 to 5) | – |
| O=[N+]([O-])c1cc(C(F)(F)F)ccc1Nc1c(Cl)c(F)nc(F)c1Cl [Compound 16, 3,5-Dichloro-2,6-difluoro-4(2-nitro-4-trifluoromethylanilino) pyridine] | 0 (O represents less than 30% kill) | – | 2 (2 represents 60 - 90% kill) | 0 (O represents less than 30% kill) | 0 (O represents less than 30% kill) | 2 (2 represents 60 - 90% kill) | 0 (O represents less than 30% kill) | 0 (O represents less than 30% kill) | 0 (O represents less than 30% kill) | 0 (O represents less than 30% kill) | 50% | 0 (61 to 100) | 0 (key: O represents less than 30% kill; 1 represents 30 - 49% kill; 2 represents 60 - 90% kill; 3 represents over 90% kill; C indicates a chemosterilant effect.; A indicates an antifeeding effect.) | 0 (key: O represents less than 30% kill; 1 represents 30 - 49% kill; 2 represents 60 - 90% kill; 3 represents over 90% kill; C indicates a chemosterilant effect.; A indicates an antifeeding effect.) | 0 (61 to 100) | 0 (61 to 100) | 3 (0 to 5) | Amount of disease grading, disease B [14]: 0 (61 to 100) |
| COc1ccc(Nc2c(Cl)c(F)nc(F)c2Cl)c([N+](=O)[O-])c1 [Compound 18, 3,5-Dichloro-2,6-difluoro-4(4-methoxy-2-nitroanilino)pyridine] | 0 (O represents less than 30% kill) | – | 0 (O represents less than 30% kill) | – | 0 (O represents less than 30% kill) | 0 (O represents less than 30% kill) | 0 (O represents less than 30% kill) | 0 (O represents less than 30% kill) | 2 (2 represents 60 - 90% kill) | 0 (O represents less than 30% kill) | 50% | – | 0 (key: O represents less than 30% kill; 1 represents 30 - 49% kill; 2 represents 60 - 90% kill; 3 represents over 90% kill; C indicates a chemosterilant effect.; A indicates an antifeeding effect.) | 0 (key: O represents less than 30% kill; 1 represents 30 - 49% kill; 2 represents 60 - 90% kill; 3 represents over 90% kill; C indicates a chemosterilant effect.; A indicates an antifeeding effect.) | – | – | – | – |
| Fc1nc(F)c(Cl)c(Nc2c(F)c(F)c(Br)c(F)c2F)c1Cl [Compound 30, 4(4-Bromo-2,3,5,6-tetrafluoroanilino)-3,5-dichloro-2,6-difluoropyridine] | 3 (3 represents over 90% kill) | – | 3 (3 represents over 90% kill) | 0 (O represents less than 30% kill) | 0 (O represents less than 30% kill) | 3 (3 represents over 90% kill) | 3 (3 represents over 90% kill) | 0 (O represents less than 30% kill) | 0 (O represents less than 30% kill) | 2 (2 represents 60 - 90% kill) | 100% | – | 0 (key: O represents less than 30% kill; 1 represents 30 - 49% kill; 2 represents 60 - 90% kill; 3 represents over 90% kill; C indicates a chemosterilant effect.; A indicates an antifeeding effect.) | 1 (key: O represents less than 30% kill; 1 represents 30 - 49% kill; 2 represents 60 - 90% kill; 3 represents over 90% kill; C indicates a chemosterilant effect.; A indicates an antifeeding effect.) | – | – | – | Amount of disease grading, disease E (Table 4) [11]: 0 (61 to 100); Amount of disease grading, disease B (Table 4) [14]: 1 (26 to 60); Amount of disease grading, disease A (Table 4) [12]: 0 (61 to 100); Amount of disease grading, disease D (Table 4) (Uncinula necator (vine)): 0 (61 to 100); Amount of disease grading, disease C (Table 4) [13]: 3 (0 to 5) |

Reference: patent US3965109A, “Certain aryl amino pyridines” (priority 1971, dated 1976)
